Columns and labels:
[1] = target: amyloid-β 42 Aβ1-42 (Homo sapiens) (UniProt P05067); conditions: cited from earlier work
[2] = target: T1, 17β-hydroxysteroid dehydrogenase type 10 (HSD10) (Homo sapiens, UniProt Q99714); assay: (-)-CHANA fluorogenic probe turnover in HSD10-overexpressing HEK293 cells; type: cell-based
T1 construct: gene HSD17B10; HSD10 overexpressed in HEK293 cells
T1 sequence (Q99714 2-261): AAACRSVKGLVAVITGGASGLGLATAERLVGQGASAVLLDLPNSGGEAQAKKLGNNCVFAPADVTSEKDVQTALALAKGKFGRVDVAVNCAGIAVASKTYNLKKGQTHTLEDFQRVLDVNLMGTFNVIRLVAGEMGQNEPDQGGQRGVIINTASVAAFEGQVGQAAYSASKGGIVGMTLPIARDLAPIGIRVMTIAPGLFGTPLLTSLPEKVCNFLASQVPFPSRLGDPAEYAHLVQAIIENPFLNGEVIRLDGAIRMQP

Chain of amyloid-β 42 Aβ1-42 (Homo sapiens) (P05067 1-42): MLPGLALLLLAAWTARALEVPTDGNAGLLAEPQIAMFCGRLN

IC50 [2] [µM] | Molecule | Kd [1] [µM]
– | HSD10 (from UniProt Q99714) | 0.0558
0.19 | O=C(C(c1ccccc1)n1cnc2[nH]ncc2c1=S)N1CCCCCC1 (stereo not drawn) [AG18051] | –
4.26 | COc1ccc2nc(NC(=O)c3ccc(O)c(Cl)c3)sc2c1 [compound 34, inhibitor 34] | –

From publication PMC12285154, “New insights into the 17β-hydroxysteroid dehydrogenase type 10 and amyloid-β 42 derived cytotoxicity relevant to Alzheimer’s disease” (Alzheimer's Research & Therapy, 2025)
